According to article PMC6149869 (OncoTargets and therapy, 2018):

Experiments:
[1] = system: MHCC97-H cells; assay: Intrahepatic HCC tumor growth model; format: in vivo, nude mice; conditions: sorafenib 2 mg/kg oral; Figure 4
[2] = system: MHCC97-H cells; assay: Subcutaneous HCC tumor growth model; format: in vivo, nude mice; conditions: sorafenib 2 mg/kg oral; Figure 3
[3] = Clearance of sorafenib in cultured MHCC97-H cells; format: in vitro ADME; conditions: human, Half-life (t1/2 value) of Sor, 1 µmol/L sorafenib
[4] = system: MDR-1; assay: qPCR expression of PXR downstream gene MDR-1 in MHCC97-H cells; conditions: human

half-life at 1 µmol/L ([3]; miR-140-3p) | half-life at 1 µmol/L ([3]; miR-140-3p + inhibitor) | EC50 at 24 h [4] | Compound | Effect on intrahepatic growth of MHCC97-H cells in livers of nude mice [1] | Effect on subcutaneous growth of HCC cells in nude mice [2]
21.6 ± 5.3 h | 14.7 ± 5.87 h |  | CNC(=O)c1cc(Oc2ccc(NC(=O)Nc3ccc(Cl)c(C(F)(F)F)c3)cc2)ccn1 [Sor, sorafenib] | significantly inhibit the intrahepatic growth of MHCC97-H cells | significantly inhibit the subcutaneous growth of HCC cells
 |  | 1810 ± 290 nM | CO[C@H]1/C=C/O[C@@]2(C)Oc3c(C)c(O)c4c(O)c(c(/C=N/N5CCN(C)CC5)c(O)c4c3C2=O)NC(=O)/C(C)=C\C=C\[C@H](C)[C@H](O)[C@@H](C)[C@@H](O)[C@@H](C)[C@H](OC(C)=O)[C@@H]1C [rifampicin, Rifampicin] |  | 
